Source: ChEMBL document CHEMBL1201862, “PubChem BioAssay data set” (2004)
Several values for one entry are separate records, joined by “and”; a condition that tells them apart may be missing. Equal values may be shown once.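 Cells were grown in 96-well plates and exposed to each compound for 48 hours at five concentrations; endpoints were interpolated linearly between bracketing concentrations, or set to the highest concentration if not reached. GI50: concentration for 50% inhibition of growth.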 Activity calls are given as the source filed them. Cut-off read from the data, not from the text of the source: active = GI50 up to about 1.1 µM and inactive = higher.

What was measured:
Assay in all cases: NCI-60 cell line screen, 48 h
K562 = test system: K562
SF-268 = test system: SF-268
NCI-H23 = test system: NCI-H23
CAKI-1 = test system: CAKI-1
MDA-MB-231 = test system: MDA-MB-231
NCI/ADR-RES = test system: NCI/ADR-RES
DU-145 = test system: DU-145
HOP-62 = test system: HOP-62
NCI-H522 = test system: NCI-H522
HCC 2998 = test system: HCC 2998
MOLT-4 = test system: MOLT-4
SNB-19 = test system: SNB-19
SNB-75 = test system: SNB-75
SK-MEL-2 = test system: SK-MEL-2
MDA-N = test system: MDA-N
786-0 = test system: 786-0
HCT-116 = test system: HCT-116
HOP-92 = test system: HOP-92
A498 = test system: A498
Hs-578T = test system: Hs-578T
OVCAR-4 = test system: OVCAR-4
TK-10 = test system: TK-10
MCF7 = test system: MCF7
IGROV-1 = test system: IGROV-1
M14 = test system: M14
HCT-15 = test system: HCT-15
PC-3 = test system: PC-3
UACC-257 = test system: UACC-257
RPMI-8226 = test system: RPMI-8226
RXF 393 = test system: RXF 393
OVCAR-8 = test system: OVCAR-8
COLO 205 = test system: COLO 205
MDA-MB-435 = test system: MDA-MB-435
NCI-H226 = test system: NCI-H226
SN12C = test system: SN12C
CCRF-CEM = test system: CCRF-CEM
OVCAR-5 = test system: OVCAR-5
NCI-H460 = test system: NCI-H460
SW-620 = test system: SW-620
HL-60 = test system: HL-60
EKVX = test system: EKVX
SF-295 = test system: SF-295
SF-539 = test system: SF-539
UO-31 = test system: UO-31
UACC-62 = test system: UACC-62
SK-MEL-5 = test system: SK-MEL-5
OVCAR-3 = test system: OVCAR-3
HT-29 = test system: HT-29
SK-MEL-28 = test system: SK-MEL-28
KM12 = test system: KM12
A549 = test system: A549
LOX IMVI = test system: LOX IMVI
ACHN = test system: ACHN
SK-OV-3 = test system: SK-OV-3
T47D = test system: T47D
U-251 = test system: U-251
SR = test system: SR
Malme-3M = test system: Malme-3M
BT-549 = test system: BT-549

Question: Which GI50 (K562) does the source give for `COc1ccc2c(c1)C1=NCCN(CCO)c3ccc([N+](=O)[O-])c(c31)N2` here?
Answer: 222 nM (active)

Question: What about the GI50 (SF-268) of the same molecule?
Answer: 752 nM (active)

Question: What about the GI50 (NCI-H23) of the same molecule?
Answer: 652 nM (active)

Question: What about the GI50 (CAKI-1) of the same molecule?
Answer: 366 nM (active)

Question: What about the GI50 (MDA-MB-231) of the same molecule?
Answer: 468 nM (active)

Question: What about the GI50 (NCI/ADR-RES) of the same molecule?
Answer: 1230 nM (inactive)

Question: What about the GI50 (DU-145) of the same molecule?
Answer: 1020 nM (active)

Question: And the GI50 (HOP-62)?
Answer: 462 nM (active)

Question: And the GI50 (NCI-H522)?
Answer: 264 nM (active)

Question: What about the GI50 (HCC 2998) of the same molecule?
Answer: 574 nM (active)

Question: What about the GI50 (MOLT-4) of the same molecule?
Answer: 75.5 nM (active)

Question: And the GI50 (SNB-19)?
Answer: 590 nM (active)

Question: What about the GI50 (SNB-75) of the same molecule?
Answer: 578 nM (active)

Question: And the GI50 (SK-MEL-2)?
Answer: 587 nM (active)

Question: And the GI50 (MDA-N)?
Answer: 431 nM (active)

Question: What about the GI50 (786-0) of the same molecule?
Answer: 220 nM (active)

Question: And the GI50 (HCT-116)?
Answer: 232 nM (active)

Question: What about the GI50 (HOP-92) of the same molecule?
Answer: 395 nM (active)

Question: And the GI50 (A498)?
Answer: 798 nM (active)

Question: What about the GI50 (Hs-578T) of the same molecule?
Answer: 693 nM (active)

Question: What about the GI50 (OVCAR-4) of the same molecule?
Answer: 540 nM (active)

Question: What about the GI50 (TK-10) of the same molecule?
Answer: 630 nM (active)

Question: What about the GI50 (MCF7) of the same molecule?
Answer: 420 nM (active)

Question: What about the GI50 (IGROV-1) of the same molecule?
Answer: 519 nM (active)

Question: And the GI50 (M14)?
Answer: 407 nM (active)

Question: And the GI50 (HCT-15)?
Answer: 750 nM

Question: What about the GI50 (PC-3) of the same molecule?
Answer: 340 nM (active)

Question: And the GI50 (UACC-257)?
Answer: 581 nM (active)

Question: And the GI50 (RPMI-8226)?
Answer: 290 nM (active)

Question: And the GI50 (RXF 393)?
Answer: 494 nM (active)

Question: And the GI50 (OVCAR-8)?
Answer: 201 nM (active)

Question: And the GI50 (COLO 205)?
Answer: 298 nM (active)

Question: What about the GI50 (MDA-MB-435) of the same molecule?
Answer: 493 nM (active)

Question: And the GI50 (NCI-H226)?
Answer: 331 nM (active)

Question: What about the GI50 (SN12C) of the same molecule?
Answer: 429 nM (active)

Question: And the GI50 (CCRF-CEM)?
Answer: 180 nM (active)

Question: And the GI50 (OVCAR-5)?
Answer: 728 nM (active)

Question: What about the GI50 (NCI-H460) of the same molecule?
Answer: 274 nM (active)

Question: And the GI50 (SW-620)?
Answer: 187 nM (active)

Question: What about the GI50 (HL-60) of the same molecule?
Answer: 340 nM (active)

Question: What about the GI50 (EKVX) of the same molecule?
Answer: 705 nM (active)

Question: What about the GI50 (SF-295) of the same molecule?
Answer: 454 nM (active)

Question: And the GI50 (SF-539)?
Answer: 415 nM (active)

Question: And the GI50 (UO-31)?
Answer: 265 nM (active)

Question: And the GI50 (UACC-62)?
Answer: 422 nM (active)

Question: And the GI50 (SK-MEL-5)?
Answer: 366 nM (active)

Question: And the GI50 (OVCAR-3)?
Answer: 785 nM (active)

Question: And the GI50 (HT-29)?
Answer: 324 nM (active)

Question: And the GI50 (SK-MEL-28)?
Answer: 624 nM (active)

Question: What about the GI50 (KM12) of the same molecule?
Answer: 505 nM (active)

Question: And the GI50 (A549)?
Answer: 427 nM (active)

Question: And the GI50 (LOX IMVI)?
Answer: 127 nM (active)

Question: What about the GI50 (ACHN) of the same molecule?
Answer: 348 nM (active)

Question: And the GI50 (SK-OV-3)?
Answer: 574 nM (active)

Question: And the GI50 (T47D)?
Answer: 532 nM (active)

Question: And the GI50 (U-251)?
Answer: 506 nM (active)

Question: And the GI50 (SR)?
Answer: 36.8 nM (active)

Question: And the GI50 (Malme-3M)?
Answer: 350 nM (active)

Question: With `O=C1N/C(=N/N=C\C(O)C(O)C(O)CO)N/C1=C/c1ccccc1` (centres undefined) as the molecule, how does the GI50 (SF-268) read?
Answer: > 100 µM (inactive) and 62.7 µM (inactive)

Question: What about the GI50 (NCI-H23) of the same molecule?
Answer: > 100000 nM (inactive)

Question: And the GI50 (CAKI-1)?
Answer: > 100000 nM (inactive)

Question: And the GI50 (MDA-MB-231)?
Answer: 60000 nM (inactive)

Question: What about the GI50 (NCI/ADR-RES) of the same molecule?
Answer: > 100000 nM (inactive)

Question: And the GI50 (DU-145)?
Answer: > 100000 nM (inactive)

Question: What about the GI50 (HOP-62) of the same molecule?
Answer: > 100000 nM (inactive)

Question: What about the GI50 (HCC 2998) of the same molecule?
Answer: 51600 nM (inactive)

Question: What about the GI50 (MOLT-4) of the same molecule?
Answer: 24 µM (inactive) and 39.6 µM (inactive)

Question: And the GI50 (SNB-19)?
Answer: > 100000 nM (inactive)

Question: And the GI50 (SNB-75)?
Answer: > 100000 nM (inactive)

Question: What about the GI50 (SK-MEL-2) of the same molecule?
Answer: > 100000 nM (inactive)

Question: What about the GI50 (MDA-N) of the same molecule?
Answer: 53000 nM (inactive)

Question: What about the GI50 (786-0) of the same molecule?
Answer: 64000 nM (inactive)

Question: And the GI50 (Hs-578T)?
Answer: > 100000 nM (inactive)

Question: And the GI50 (TK-10)?
Answer: > 100000 nM (inactive)

Question: What about the GI50 (MCF7) of the same molecule?
Answer: 34.4 µM (inactive) and 32.6 µM (inactive)

Question: And the GI50 (UACC-257)?
Answer: > 100000 nM (inactive)

Question: And the GI50 (RXF 393)?
Answer: > 100000 nM (inactive)

Question: And the GI50 (OVCAR-8)?
Answer: 65000 nM (inactive)

Question: And the GI50 (COLO 205)?
Answer: > 100000 nM (inactive)

Question: What about the GI50 (NCI-H226) of the same molecule?
Answer: > 100000 nM (inactive)

Question: And the GI50 (OVCAR-5)?
Answer: > 100000 nM (inactive)

Question: What about the GI50 (EKVX) of the same molecule?
Answer: > 100 µM (inactive) and 85.7 µM (inactive)

Question: And the GI50 (UO-31)?
Answer: > 100000 nM (inactive)

Question: And the GI50 (HT-29)?
Answer: 50100 nM (inactive)

Question: What about the GI50 (A549) of the same molecule?
Answer: > 100000 nM (inactive)

Question: What about the GI50 (LOX IMVI) of the same molecule?
Answer: > 100000 nM (inactive)

Question: And the GI50 (ACHN)?
Answer: > 100000 nM (inactive)

Question: What about the GI50 (SK-OV-3) of the same molecule?
Answer: > 100000 nM (inactive)

Question: And the GI50 (U-251)?
Answer: > 100 µM (inactive) and 52.5 µM (inactive)

Question: What about the GI50 (Malme-3M) of the same molecule?
Answer: 82000 nM (inactive)

Question: Which results are given for `CC(C)CC(=O)O[C@H]1C(=O)O[C@@H]2C[C@H]3[C@H](C)C(=O)C(O[C@@H]4O[C@H](CO)[C@@H](O)[C@H](O)[C@H]4O)=C[C@]3(C)[C@H]3[C@@H](O)[C@H](O)[C@]4(C(=O)O)OC[C@]32[C@@H]14` [BRUCEOSIDE E]?
Answer: GI50 (NCI-H23): 52400 nM (inactive); GI50 (SNB-75): 78000 nM (inactive); GI50 (MDA-N): 82000 nM (inactive); GI50 (TK-10): 59600 nM (inactive); GI50 (M14): 91200 nM (inactive); GI50 (PC-3): 80900 nM (inactive); GI50 (MDA-MB-435): 61200 nM (inactive); GI50 (BT-549): 95100 nM (inactive); GI50 (OVCAR-5): 94000 nM (inactive); GI50 (UO-31): 71400 nM (inactive); GI50 (UACC-62): 60000 nM (inactive); GI50 (KM12): 70100 nM (inactive); GI50 (SK-OV-3): 52100 nM (inactive); GI50 (T47D): 94600 nM (inactive)
